Experimental data reported in US20250186411A1, “Methods of Treating Disorders Associated with Overactivation of IKKB” (The United States Government as represented by the …, priority 2023, published 2025).

Tested on: human podocytes
Assay: Cell viability of podocytes (renilla activity, MTS assay)
Type: cell-based
Protocol: Differentiated pEZX-FR03hKLF5p human podocytes were treated with 25 μg/ml lipopolysaccharide (LPS) or vehicle and 1 μM KLF15 agonist or vehicle control for 24 hours. Firefly and renilla luciferase assay were measured initially to determine relative KLF15 reporter activity.
Differentiated pEZX-FR03hKLF5p human podocytes were treated with 0.4 μg/ml adriamycin (ADR) or vehicle and 1 μM KLF15 agonist or vehicle control for 24 hours. Firefly and renilla luciferase assay were measured initially to determine relative KLF15 reporter activity.
To assess cell viability, the CellTiter 96® AQueous One Solution Reagent (Promega) was added to the culture media and plates were incubated for 2 hours at 37° C. with 5% CO2.

## CSc1ccc(NC(=O)Nc2ccc(C)nc2)cc1 [BT503]
Analogue screen
  toxicity to human podocytes: no observed toxicity
As compared to DMSO-treated podocytes
  renilla activity (cell viability) in the setting of LPS treatment: restored renilla activity
